Results reported in ChEMBL document CHEMBL5226299, “Targeting Lysosomal Degradation Pathways: New Strategies and Techniques for Drug Discovery” (J Med Chem, 2021).

Biological target: Methionine aminopeptidase 2 (Homo sapiens) (UniProt P50579)
Test: Induction of MetAP-2 degradation in human HeLa cells at 10 uM relative to control
Type: cell-based

Methionine aminopeptidase 2 (Homo sapiens), sequence (P50579 2-478 limits assumed): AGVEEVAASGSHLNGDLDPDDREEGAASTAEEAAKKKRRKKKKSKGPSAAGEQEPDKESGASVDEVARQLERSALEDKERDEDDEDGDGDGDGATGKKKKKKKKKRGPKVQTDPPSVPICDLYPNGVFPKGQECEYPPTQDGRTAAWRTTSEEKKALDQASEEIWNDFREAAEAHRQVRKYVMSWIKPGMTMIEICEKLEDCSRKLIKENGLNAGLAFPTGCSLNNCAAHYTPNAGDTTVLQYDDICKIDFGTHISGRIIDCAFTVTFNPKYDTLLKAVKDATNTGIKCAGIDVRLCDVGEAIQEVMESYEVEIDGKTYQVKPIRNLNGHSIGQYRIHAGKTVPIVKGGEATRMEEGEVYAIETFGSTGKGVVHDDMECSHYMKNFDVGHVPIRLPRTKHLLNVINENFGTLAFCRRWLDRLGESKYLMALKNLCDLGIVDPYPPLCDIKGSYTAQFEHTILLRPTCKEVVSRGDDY

With CO[C@@H]1[C@H](OC(=O)NCCCOCCOCCOCCCNC(=O)[C@H](CSc2nc3c(=O)[nH]c(N)nc3n2Cc2ccc(F)cc2)NC(C)=O)CC[C@]2(CO2)[C@H]1[C@@]1(C)O[C@@H]1CC=C(C)C as the compound, how does the Activity read?
Its Activity is 80%.
